Laboratory results reported in the NIST ThermoML archive (doi:10.1016/j.fluid.2015.12.031).
± gives the expanded uncertainty stated by the source.

Details: Liquid; Resistive pulse heating

Critical pressure | Critical temperature | Compound
2700 ± 80 kPa | 651 ± 7 K | CCOC(=O)CC(=O)OCC [diethyl 1,3-propanedioate]
2290 ± 70 kPa | 666 ± 7 K | CCOC(=O)CCC(=O)OCC [diethyl butanedioate]
1990 ± 60 kPa | 697 ± 7 K | CCOC(=O)CCCCC(=O)OCC [diethyl hexanedioate]
